How the values were obtained:
[1] = target: Voltage-dependent T-type calcium channel subunit alpha-1I (Homo sapiens) (UniProt Q9P0X4); assay: Antagonist activity at T type calcium channel Cav3.3 alpha1i at -60 mV by FLIPR assay; format: functional
Rattus norvegicus [2] = species: Rattus norvegicus; assay: Decrease in seizure time in Wistar albino Glaxo rat model of absence epilepsy after 4 hrs; format: functional
[3] = target: Voltage-dependent T-type calcium channel subunit alpha-1I (Homo sapiens) (UniProt Q9P0X4); assay: Antagonist activity at T type calcium channel Cav3.3 alpha1i at -20 mV by FLIPR assay; format: functional
[4] = Cmax in Wistar albino Glaxo rat model of absence epilepsy at 3 mg/kg; format: ADME, organism-based; design: dose 3 mg/kg; conditions: in vivo
[5] = target: Voltage-dependent N-type calcium channel subunit alpha-1B (Homo sapiens) (UniProt Q00975); assay: Inhibition of calcium channel Cav2.2 at 10 uM by high throughput assay
Canis familiaris [6] = assay: Toxicity in dog assessed as effect on renal plasma flow at 20 mg/kg, po after 3 hrs; format: organism-based, Canis lupus familiaris; design: dose 20 mg/kg, route oral; conditions: in vivo
[7] = Half life in monkey at 0.5 mg/kg, iv; format: ADME, organism-based, Macaca mulatta; design: dose 0.5 mg/kg, route intravenous; conditions: rhesus monkey, in vivo
[8] = Clearance in rat at 1 mg/kg, iv; format: ADME, organism-based; design: dose 1 mg/kg, route intravenous; conditions: in vivo
[9] = Tmax in monkey at 2 mg/kg, po; format: ADME, organism-based, Macaca mulatta; design: dose 2 mg/kg, route oral; conditions: rhesus monkey, in vivo
Rattus norvegicus [10] = species: Rattus norvegicus; assay: Decrease in tremor activity in harmaline-induced rat model; format: functional, organism-based
[11] = target: Sodium channel protein type 5 subunit alpha (Homo sapiens, UniProt Q14524); assay: Inhibition of sodium channel Nav1.5 by voltage-clamp method
Sodium channel protein type 5 subunit alpha, sequence (Q14524 whole entry, the tested form may be a part): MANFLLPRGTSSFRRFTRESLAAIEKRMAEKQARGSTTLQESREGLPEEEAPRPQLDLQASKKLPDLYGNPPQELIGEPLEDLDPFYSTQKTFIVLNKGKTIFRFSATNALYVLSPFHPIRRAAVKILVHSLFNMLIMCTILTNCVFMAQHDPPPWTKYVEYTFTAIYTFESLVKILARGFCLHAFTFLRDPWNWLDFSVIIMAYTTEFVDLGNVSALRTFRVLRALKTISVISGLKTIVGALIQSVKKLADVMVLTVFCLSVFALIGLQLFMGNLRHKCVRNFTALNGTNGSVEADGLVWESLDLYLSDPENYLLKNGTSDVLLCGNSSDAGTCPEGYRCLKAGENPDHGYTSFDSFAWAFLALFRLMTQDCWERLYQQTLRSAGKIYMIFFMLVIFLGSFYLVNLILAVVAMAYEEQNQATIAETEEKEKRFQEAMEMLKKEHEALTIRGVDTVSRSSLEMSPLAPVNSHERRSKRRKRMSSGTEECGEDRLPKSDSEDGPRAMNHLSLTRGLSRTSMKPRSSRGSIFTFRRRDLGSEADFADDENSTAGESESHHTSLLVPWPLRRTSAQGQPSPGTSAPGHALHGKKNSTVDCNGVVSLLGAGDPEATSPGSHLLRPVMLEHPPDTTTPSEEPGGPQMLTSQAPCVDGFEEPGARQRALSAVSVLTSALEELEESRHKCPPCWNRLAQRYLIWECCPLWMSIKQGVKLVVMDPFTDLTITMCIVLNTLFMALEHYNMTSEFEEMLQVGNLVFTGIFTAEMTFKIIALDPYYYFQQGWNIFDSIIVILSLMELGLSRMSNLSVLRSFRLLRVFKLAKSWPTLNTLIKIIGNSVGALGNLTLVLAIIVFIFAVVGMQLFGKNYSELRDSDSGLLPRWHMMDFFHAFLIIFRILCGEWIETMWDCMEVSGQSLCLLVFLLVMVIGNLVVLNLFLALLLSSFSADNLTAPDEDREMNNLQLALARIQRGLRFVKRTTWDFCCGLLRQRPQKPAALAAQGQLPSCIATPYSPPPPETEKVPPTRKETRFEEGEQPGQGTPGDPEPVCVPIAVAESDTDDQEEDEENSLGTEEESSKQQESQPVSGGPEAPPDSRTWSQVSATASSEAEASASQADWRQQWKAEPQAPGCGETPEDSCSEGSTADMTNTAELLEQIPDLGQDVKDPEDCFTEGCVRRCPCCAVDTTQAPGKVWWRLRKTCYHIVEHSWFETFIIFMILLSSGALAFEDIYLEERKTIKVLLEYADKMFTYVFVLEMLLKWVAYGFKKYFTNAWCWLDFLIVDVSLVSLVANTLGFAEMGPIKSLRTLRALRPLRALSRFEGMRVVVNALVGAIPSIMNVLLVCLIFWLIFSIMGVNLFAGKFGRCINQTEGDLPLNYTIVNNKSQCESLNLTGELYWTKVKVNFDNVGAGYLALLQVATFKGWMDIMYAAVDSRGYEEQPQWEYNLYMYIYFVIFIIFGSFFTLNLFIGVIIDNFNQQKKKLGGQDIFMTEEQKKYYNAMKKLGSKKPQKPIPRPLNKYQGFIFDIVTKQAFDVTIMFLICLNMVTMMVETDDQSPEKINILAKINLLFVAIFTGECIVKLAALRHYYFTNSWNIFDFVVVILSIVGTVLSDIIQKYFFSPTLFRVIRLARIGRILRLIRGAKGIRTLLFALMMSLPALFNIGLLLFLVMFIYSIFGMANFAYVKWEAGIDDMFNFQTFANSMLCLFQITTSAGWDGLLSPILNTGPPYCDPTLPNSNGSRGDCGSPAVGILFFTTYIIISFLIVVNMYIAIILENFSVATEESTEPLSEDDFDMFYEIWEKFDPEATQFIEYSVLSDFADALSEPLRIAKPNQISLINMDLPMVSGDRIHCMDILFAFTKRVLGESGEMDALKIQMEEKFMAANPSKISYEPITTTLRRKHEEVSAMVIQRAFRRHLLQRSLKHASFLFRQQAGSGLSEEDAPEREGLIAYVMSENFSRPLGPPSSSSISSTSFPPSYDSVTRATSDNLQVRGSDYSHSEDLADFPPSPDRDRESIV

[12] = Drug level in dog plasma at 1.29 mg/kg, iv measured at end of 60 mins infusion; format: ADME, organism-based, Canis lupus familiaris; design: dose 1.29 mg/kg, route intravenous; conditions: read-out: Drug uptake
[13] = AUC (0 to 24 hrs) in monkey at 2 mg/kg, po; format: ADME, organism-based, Macaca mulatta; design: time < 24 hr, dose 2 mg/kg, route oral; conditions: rhesus monkey, plasma
[14] = Tmax in dog at 1 mg/kg, po; format: ADME, organism-based, Canis lupus familiaris; design: dose 1 mg/kg, route oral; conditions: in vivo
[15] = AUC (0 to 4 hrs) in Wistar albino Glaxo rat model of absence epilepsy at 1 mg/kg; format: ADME, organism-based; design: time < 4 hr, dose 1 mg/kg; conditions: in vivo
[16] = AUC (0 to 24 hrs) in rat at 10 mg/kg, po; format: ADME, organism-based; design: time < 24 hr, dose 10 mg/kg, route oral; conditions: plasma
[17] = target: Voltage-dependent T-type calcium channel subunit alpha-1H (Homo sapiens) (UniProt O95180); assay: Antagonist activity at T type calcium channel Cav3.2 alpha-1H at -100 mV by voltage-clamp electrophysiology assay; format: functional
[18] = Half life in rat at 1 mg/kg, iv; format: ADME, organism-based; design: dose 1 mg/kg, route intravenous; conditions: in vivo
Canis familiaris [19] = assay: Toxicity in dog assessed as effect on ECG intervals at 20 mg/kg, po after 3 hrs; format: organism-based, Canis lupus familiaris; design: dose 20 mg/kg, route oral; conditions: in vivo
[20] = Clearance in monkey at 0.5 mg/kg, iv; format: ADME, organism-based, Macaca mulatta; design: dose 0.5 mg/kg, route intravenous; conditions: rhesus monkey, in vivo
[21] = Protein binding in dog plasma; format: ADME, cell-free, Canis lupus familiaris; conditions: read-out: PPB
[22] = Protein binding in rat plasma; format: ADME, cell-free; conditions: read-out: PPB (converted)
Canis familiaris [23] = assay: Toxicity in dog assessed as effect on plasma electrolytes at 20 mg/kg, po after 3 hrs; format: organism-based, Canis lupus familiaris; design: dose 20 mg/kg, route oral; conditions: in vivo
[24] = AUC (0 to 4 hrs) in Wistar albino Glaxo rat model of absence epilepsy at 3 mg/kg; format: ADME, organism-based; design: time < 4 hr, dose 3 mg/kg; conditions: in vivo
[25] = Binding affinity to sigma receptor
[26] = Volume of distribution at steady state in monkey at 0.5 mg/kg, iv; format: ADME, organism-based, Macaca mulatta; design: dose 0.5 mg/kg, route intravenous; conditions: rhesus monkey, in vivo, read-out: Vdss
[27] = Protein binding in monkey plasma; format: ADME, cell-free, Macaca mulatta; conditions: rhesus monkey, read-out: PPB (converted)
[28] = Cmax in Wistar albino Glaxo rat model of absence epilepsy at 10 mg/kg; format: ADME, organism-based; design: dose 10 mg/kg; conditions: in vivo
[29] = Inhibition of sodium channel site 2 by binding assay
[30] = Half life in dog at 0.5 mg/kg, iv; format: ADME, organism-based, Canis lupus familiaris; design: dose 0.5 mg/kg, route intravenous; conditions: in vivo
[31] = Antagonist activity at T type calcium channel at -80 mV by voltage-clamp electrophysiology assay; format: functional
[32] = Oral bioavailability in monkey at 2 mg/kg; format: ADME, organism-based, Macaca mulatta; conditions: rhesus monkey, in vivo
[33] = Tmax in rat at 10 mg/kg, po; format: ADME, organism-based; design: dose 10 mg/kg, route oral; conditions: in vivo
Canis familiaris [34] = assay: Toxicity in dog assessed as effect on urinary excretion of sodium and potassium at 20 mg/kg, po after 3 hrs; format: organism-based, Canis lupus familiaris, Urine; design: dose 20 mg/kg, route oral; conditions: in vivo
[35] = Oral bioavailability in rat at 10 mg/kg; format: ADME, organism-based; conditions: in vivo
Canis familiaris [36] = assay: Drug level in dog plasma at 20 mg/kg, po; format: ADME, organism-based, Canis lupus familiaris; design: dose 20 mg/kg, route oral; conditions: in vivo, read-out: Drug uptake
[37] = Cmax in monkey at 2 mg/kg, po; format: ADME, organism-based, Macaca mulatta; design: dose 2 mg/kg, route oral; conditions: rhesus monkey, in vivo
[38] = Clearance in dog at 0.5 mg/kg, iv; format: ADME, organism-based, Canis lupus familiaris; design: dose 0.5 mg/kg, route intravenous; conditions: in vivo
Canis familiaris [39] = assay: Toxicity in dog assessed as effect on urine flow at 20 mg/kg, po after 3 hrs; format: organism-based, Canis lupus familiaris; design: dose 20 mg/kg, route oral; conditions: in vivo
[40] = AUC (0 to 4 hrs) in Wistar albino Glaxo rat model of absence epilepsy at 10 mg/kg; format: ADME, organism-based; design: time < 4 hr, dose 10 mg/kg; conditions: in vivo
[41] = Ratio of drug level in cerebrospinal fluid to plasma in rat after 9 hrs; format: ADME, CSF/Plasma
Canis familiaris [42] = assay: Toxicity in dog assessed as effect on glomerular filtration at 20 mg/kg, po after 3 hrs; format: organism-based, Canis lupus familiaris; design: dose 20 mg/kg, route oral; conditions: in vivo
[43] = AUC (0 to 24 hrs) in dog at 1 mg/kg, po; format: ADME, organism-based, Canis lupus familiaris; design: time < 24 hr, dose 1 mg/kg, route oral; conditions: plasma
[44] = Cmax in dog at 1 mg/kg, po; format: ADME, organism-based, Canis lupus familiaris; design: dose 1 mg/kg, route oral; conditions: in vivo
[45] = Drug level in dog plasma at 4.30 mg/kg, iv measured at end of 60 mins infusion; format: ADME, organism-based, Canis lupus familiaris; design: dose 4.3 mg/kg, route intravenous; conditions: 4.3 mg/kg, read-out: Drug uptake
[46] = Cmax in Wistar albino Glaxo rat model of absence epilepsy at 1 mg/kg; format: ADME, organism-based; design: dose 1 mg/kg; conditions: in vivo
Canis familiaris [47] = assay: Toxicity in dog assessed as increase in heart rate at 20 mg/kg, po after 3 hrs; format: organism-based, Canis lupus familiaris; design: dose 20 mg/kg, route oral; conditions: in vivo
[48] = Antagonist activity at T type calcium channel at -100 mV by voltage-clamp electrophysiology assay; format: functional
[49] = Cmax in rat at 10 mg/kg, po; format: ADME, organism-based; design: dose 10 mg/kg, route oral; conditions: in vivo
[50] = Oral bioavailability in dog at 1 mg/kg; format: ADME, organism-based, Canis lupus familiaris; conditions: in vivo
[51] = Volume of distribution at steady state in dog at 0.5 mg/kg, iv; format: ADME, organism-based, Canis lupus familiaris; design: dose 0.5 mg/kg, route intravenous; conditions: in vivo, read-out: Vdss
Canis familiaris [52] = assay: Toxicity in dog assessed as effect on blood pressure at 20 mg/kg, po after 3 hrs; format: organism-based, Canis lupus familiaris; design: dose 20 mg/kg, route oral; conditions: in vivo
[53] = Volume of distribution at steady state in rat at 1 mg/kg, iv; format: ADME, organism-based; design: dose 1 mg/kg, route intravenous; conditions: in vivo, read-out: Vdss
[54] = Antagonist activity at sigma receptor in guinea pig vas deferens at 30 uM; format: functional, Cavia porcellus; design: scale not given: the % may be the effect or the level left
[55] = target: Voltage-dependent T-type calcium channel subunit alpha-1G (Homo sapiens) (UniProt O43497); assay: Antagonist activity at T type calcium channel Cav3.1 alpha-1G at -100 mV by voltage-clamp electrophysiology assay; format: functional
[56] = Ratio of drug level in brain to plasma in rat after 9 hrs; format: ADME, cell-free
[57] = target: Voltage-gated inwardly rectifying potassium channel KCNH2 (Homo sapiens, UniProt Q12809)
[58] = Binding affinity to L type calcium channel by binding assay

Voltage-dependent T-type calcium channel subunit alpha-1I (Homo sapiens), sequence (Q9P0X4 whole entry): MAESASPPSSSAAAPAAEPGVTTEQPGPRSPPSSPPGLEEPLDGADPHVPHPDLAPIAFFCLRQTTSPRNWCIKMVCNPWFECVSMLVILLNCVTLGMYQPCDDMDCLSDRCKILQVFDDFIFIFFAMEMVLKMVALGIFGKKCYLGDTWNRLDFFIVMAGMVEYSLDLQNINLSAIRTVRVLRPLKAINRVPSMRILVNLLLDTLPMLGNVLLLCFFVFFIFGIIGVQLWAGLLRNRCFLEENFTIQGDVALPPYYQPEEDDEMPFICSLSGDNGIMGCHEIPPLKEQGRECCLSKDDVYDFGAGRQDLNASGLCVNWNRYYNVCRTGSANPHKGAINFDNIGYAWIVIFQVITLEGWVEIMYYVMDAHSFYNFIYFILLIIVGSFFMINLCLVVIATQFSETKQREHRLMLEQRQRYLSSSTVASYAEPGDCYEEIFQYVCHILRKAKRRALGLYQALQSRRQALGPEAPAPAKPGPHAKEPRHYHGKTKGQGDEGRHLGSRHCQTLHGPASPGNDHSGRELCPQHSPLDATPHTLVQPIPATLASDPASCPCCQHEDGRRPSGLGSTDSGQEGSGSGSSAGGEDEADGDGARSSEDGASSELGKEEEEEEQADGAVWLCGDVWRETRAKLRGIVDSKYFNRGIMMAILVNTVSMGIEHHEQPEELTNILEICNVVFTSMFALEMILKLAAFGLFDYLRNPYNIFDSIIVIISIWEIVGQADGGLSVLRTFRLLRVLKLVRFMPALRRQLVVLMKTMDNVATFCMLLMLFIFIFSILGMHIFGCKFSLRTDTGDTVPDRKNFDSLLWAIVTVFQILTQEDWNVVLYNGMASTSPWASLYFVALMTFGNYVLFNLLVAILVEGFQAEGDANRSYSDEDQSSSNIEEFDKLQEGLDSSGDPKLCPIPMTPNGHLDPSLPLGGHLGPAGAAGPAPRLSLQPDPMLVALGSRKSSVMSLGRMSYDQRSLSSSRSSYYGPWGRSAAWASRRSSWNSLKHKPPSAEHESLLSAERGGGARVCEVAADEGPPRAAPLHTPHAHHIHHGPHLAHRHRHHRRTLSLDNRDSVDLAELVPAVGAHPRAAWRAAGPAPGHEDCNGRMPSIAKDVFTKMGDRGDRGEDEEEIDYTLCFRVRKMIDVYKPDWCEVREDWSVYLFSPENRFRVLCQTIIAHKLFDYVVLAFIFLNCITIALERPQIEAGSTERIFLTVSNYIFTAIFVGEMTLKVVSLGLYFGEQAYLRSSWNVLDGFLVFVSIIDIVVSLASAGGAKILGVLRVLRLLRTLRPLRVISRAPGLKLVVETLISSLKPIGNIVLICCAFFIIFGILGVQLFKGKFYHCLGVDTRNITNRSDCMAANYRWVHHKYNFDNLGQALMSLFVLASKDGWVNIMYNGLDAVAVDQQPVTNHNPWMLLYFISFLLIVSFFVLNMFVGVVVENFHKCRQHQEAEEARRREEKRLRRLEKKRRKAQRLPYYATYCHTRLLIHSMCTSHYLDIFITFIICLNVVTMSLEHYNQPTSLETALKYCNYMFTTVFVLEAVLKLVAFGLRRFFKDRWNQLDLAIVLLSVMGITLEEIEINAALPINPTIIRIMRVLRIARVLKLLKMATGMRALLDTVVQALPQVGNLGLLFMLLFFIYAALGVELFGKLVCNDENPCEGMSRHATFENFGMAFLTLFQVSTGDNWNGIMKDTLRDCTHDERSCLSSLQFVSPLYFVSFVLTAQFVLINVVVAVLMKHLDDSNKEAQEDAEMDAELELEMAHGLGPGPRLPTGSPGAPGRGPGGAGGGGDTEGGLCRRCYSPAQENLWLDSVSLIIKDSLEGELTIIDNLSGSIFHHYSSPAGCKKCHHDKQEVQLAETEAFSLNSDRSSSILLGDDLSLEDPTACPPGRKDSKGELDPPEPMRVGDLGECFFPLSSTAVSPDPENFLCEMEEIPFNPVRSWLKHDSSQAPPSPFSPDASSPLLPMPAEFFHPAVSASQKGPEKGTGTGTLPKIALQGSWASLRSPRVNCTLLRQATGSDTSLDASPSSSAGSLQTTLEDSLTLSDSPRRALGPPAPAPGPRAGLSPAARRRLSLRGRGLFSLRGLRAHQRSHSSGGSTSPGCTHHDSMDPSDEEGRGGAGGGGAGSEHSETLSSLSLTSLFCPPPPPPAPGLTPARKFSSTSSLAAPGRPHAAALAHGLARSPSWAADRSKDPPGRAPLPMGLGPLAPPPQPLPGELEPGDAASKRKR

CC(C)(C)CCN1CCC(CNC(=O)c2cc(Cl)cc(Cl)c2)CC1
Activity [1]: 98 nM

CC1(C)C[C@H](CN2CCC(F)(CNC(=O)c3cc(Cl)cc(Cl)c3)CC2)CCO1
inhibition (INH) (Rattus norvegicus [2]): 63% | Activity [3]: 94 nM | Activity [1]: 297 nM

CC1(C)CC(CN2CCC(F)(CNC(=O)c3cc(Cl)cc(Cl)c3)CC2)CCO1 (racemic)
Activity [3]: 145 nM | Activity [1]: 333 nM

CC1(C)C[C@@H](CN2CCC(F)(CNC(=O)c3cc(Cl)cc(Cl)c3)CC2)CCO1
Cmax [4]: 190 nM | inhibition [5]: 18% | Activity (Canis familiaris [6]): Non-toxic | half-life [7]: 3.3 h | clearance [8]: 75 mL/min/kg | Tmax [9]: 1.5 h | Activity (Rattus norvegicus [10]): Dose-dependent effect | IC50 [11]: 84 µM | concentration at 1 h [12]: 1500 nM | AUC(0-t) at 24 h [13]: 3.2 µM·h | Tmax [14]: 3.1 h | AUC(0-t) at 4 h [15]: 0.15 µM·h | inhibition (INH) (Rattus norvegicus [2]): 81% | AUC(0-t) at 24 h [16]: 1.94 µM·h | Activity [17]: 196 nM | half-life [18]: 1.8 h | Activity (Canis familiaris [19]): Non-toxic | clearance [20]: 13.6 mL/min/kg | Activity [3]: 84 nM | fraction unbound [21]: 0.01 | fraction unbound [22]: 0.057 | Activity (Canis familiaris [23]): Non-toxic | AUC(0-t) at 4 h [24]: 0.54 µM·h | Ki [25]: < 0.1 µM | Vd [26]: 3.8 L/kg | Activity [1]: 181 nM | fraction unbound [27]: 0.025 | Cmax [28]: 1000 nM | IC50 [29]: 1.9 µM | half-life [30]: 4.7 h | Activity [31]: 115 nM | bioavailability [32]: 44% | Tmax [33]: 0.7 h | Activity (Canis familiaris [34]): Non-toxic | bioavailability [35]: 36% | concentration (Canis familiaris [36]): 34500 nM | Cmax [37]: 580 nM | clearance [38]: 2.3 mL/min/kg | Activity (Canis familiaris [39]): Non-toxic | AUC(0-t) at 4 h [40]: 2.96 µM·h | Kp at 9 h [41]: 2.8 | Activity (Canis familiaris [42]): Non-toxic | AUC(0-t) at 24 h [43]: 15.8 µM·h | Cmax [44]: 2180 nM | concentration at 1 h [45]: 4600 nM | Cmax [46]: 60 nM | Activity (Canis familiaris [47]): Toxic | Activity [48]: 84 nM | Cmax [49]: 480 nM | bioavailability [50]: 87% | Vd [51]: 1 L/kg | Activity (Canis familiaris [52]): Non-toxic | Vd [53]: 10 L/kg | Activity [54]: 30% | Activity [55]: 93 nM | Kp at 9 h [56]: 6

CC(C)(C)CCN1CCC(F)(CNC(=O)c2cc(Cl)cc(Cl)c2)CC1
Activity [3]: 66 nM | Activity [1]: 64 nM | IC50 [57]: 2.22 µM | IC50 [58]: 0.94 µM
